Measured values from ChEMBL document CHEMBL3120061, “Novel spiroketal pyrrolidine GSK2336805 potently inhibits key hepatitis C virus genotype 1b mutants: from lead to clinical compound” (J Med Chem, 2014).

Key:
[1] = tested on: Hepatitis C virus; experiment: Antiviral activity against Hepatitis C virus genotype 1a in Huh-luc/neo-ET replicon cells after 48 hrs by replicon-based luciferase assay; type: functional, organism-based, Hepacivirus hominis; conditions: subtype 1a
[2] = tested on: Hepatitis C virus; experiment: Antiviral activity against Hepatitis C virus genotype 1b in Huh-luc/neo-ET replicon cells after 48 hrs by replicon-based luciferase assay; type: functional, organism-based, Hepacivirus hominis
[3] = tested on: Hepatitis C virus; experiment: Ratio of EC50 for Hepatitis C virus genotype 1b harboring NS5A Y93H mutant gene to EC50 for Hepatitis C virus genotype 1b harboring wild type NS5A in Huh-luc/neo-ET replicon cells by replicon-based luciferase assay; type: functional, Hepacivirus hominis
[4] = tested on: Hepatitis C virus; experiment: Antiviral activity against Hepatitis C virus genotype 1b harboring NS5A L31V mutant gene in Huh-luc/neo-ET replicon cells after 48 hrs by transient replicon mutant-based luciferase assay; type: functional, organism-based, Hepacivirus hominis
[5] = tested on: Hepatitis C virus; experiment: Antiviral activity against Hepatitis C virus genotype 1b harboring NS5A Y93H mutant gene in Huh-luc/neo-ET replicon cells after 48 hrs by transient replicon mutant-based luciferase assay; type: functional, organism-based, Hepacivirus hominis
[6] = tested on: Hepatitis C virus; experiment: Antiviral activity against Hepatitis C virus genotype 1b harboring NS5A L28V mutant gene in Huh-luc/neo-ET replicon cells after 48 hrs by transient replicon mutant-based luciferase assay; type: functional, organism-based, Hepacivirus hominis
[7] = tested on: Hepatitis C virus; experiment: Ratio of EC50 for Hepatitis C virus genotype 1b harboring NS5A L31V mutant gene to EC50 for Hepatitis C virus genotype 1b harboring wild type NS5A in Huh-luc/neo-ET replicon cells by replicon-based luciferase assay; type: functional, Hepacivirus hominis

SMILES | EC50 [1] [nM] | EC50 [2] [nM] | also measured
COC(=O)N[C@H](C(=O)N1CCC[C@H]1c1ncc(-c2ccc(-c3ccc(-c4cnc([C@@H]5CC6(CN5C(=O)[C@@H](NC(=O)OC)C(C)C)O[C@@H](C)C[C@H](C)O6)[nH]4)cc3)cc2)[nH]1)C(C)C (stereo partly specified) | 2 | 0.0126 | –
O=C(NC1CC1)c1ccc(-c2csc(NC(=O)[C@@H]3CCCN3C(=O)OCc3ccccc3)n2)cc1 | > 20000 | 126 | –
COC(=O)N[C@H](C(=O)N1CCC[C@H]1c1ncc(-c2ccc(-c3ccc(-c4cnc(C5CCC6(CCOCC6)N5C(=O)OCc5ccccc5)[nH]4)cc3)cc2)[nH]1)C(C)C (stereo partly specified) | 6.31 | 0.00631 | –
COC(=O)N[C@H](C(=O)N1CC2(CCN(C(C)=O)CC2)CC1c1ncc(-c2ccc(-c3ccc(-c4cnc([C@@H]5CCCN5C(=O)[C@@H](NC(=O)OC)C(C)C)[nH]4)cc3)cc2)[nH]1)C(C)C (mixture of isomers) | 10 | 0.2 | –
COC(=O)N[C@H](C(=O)N1CCC[C@H]1c1ncc(-c2ccccc2)[nH]1)C(C)C | 501 | 200 | –
COC(=O)N[C@H](C(=O)N1CCC[C@H]1c1ncc(-c2ccc(-c3ccc(-c4cnc(C5CCC6(CCS(=O)(=O)CC6)N5C(=O)[C@@H](NC(=O)OC)C(C)C)[nH]4)cc3)cc2)[nH]1)C(C)C (stereo partly specified) | 12.6 | 0.316 | –
COC(=O)N[C@@H](CC(C)C)C(=O)N1C(c2ncc(-c3ccc(-c4ccc(-c5cnc([C@@H]6CCCN6C(=O)[C@@H](NC(=O)OC)C(C)C)[nH]5)cc4)cc3)[nH]2)CCC12CCC(F)(F)CC2 (stereo partly specified) | 2 | 0.0126 | –
COC(=O)N[C@H](C(=O)N1CC2(CNC2)CC1c1ncc(-c2ccc(-c3ccc(-c4cnc([C@@H]5CCCN5C(=O)[C@@H](NC(=O)OC)C(C)C)[nH]4)cc3)cc2)[nH]1)C(C)C (mixture of isomers) | 3.16 | 0.126 | –
O=C(Nc1cccnc1)c1ccc(-c2csc(NC(=O)[C@@H]3COC4(CCOCC4)N3C(=O)OCc3ccccc3)n2)cc1 | > 20000 | 0.251 | –
COC(=O)N[C@H](C(=O)N1CC2(CCN(C(=O)OC(C)(C)C)CC2)CC1c1ncc(-c2ccc(-c3ccc(-c4cnc([C@@H]5CCCN5C(=O)[C@@H](NC(=O)OC)C(C)C)[nH]4)cc3)cc2)[nH]1)C(C)C (mixture of isomers) | 10 | 0.0398 | –
COC(=O)N[C@H](C(=O)N1CCC[C@H]1c1ncc(-c2ccc(-c3ccc(-c4cnc([C@@H]5CC6(CCC(F)(F)CC6)CN5C(=O)[C@@H](NC(=O)OC)C(C)C)[nH]4)cc3)cc2)[nH]1)C(C)C | 0.0398 | 0.00251 | Ratio EC50 [3]: >=30; EC50 [4]: 0.2 nM; EC50 [5]: 1 nM; EC50 [6]: 0.00158 nM; Ratio EC50 [7]: >=25
COC(=O)N[C@H](C(=O)N1CC2(CC1c1ncc(-c3ccc(-c4ccc(-c5cnc([C@@H]6CCCN6C(=O)[C@@H](NC(=O)OC)C(C)C)[nH]5)cc4)cc3)[nH]1)CN(C(=O)OC)C2)C(C)C (mixture of isomers) | 2 | 0.0501 | –
COC(=O)N[C@H](C(=O)N1CCC[C@H]1c1ncc(-c2ccc(-c3ccc(-c4cnc(C5CCC6(CCC(F)(F)CC6)N5C(C)=O)[nH]4)cc3)cc2)[nH]1)C(C)C (stereo partly specified) | 25.1 | 0.1 | –
COC(=O)N[C@H](C(=O)N1CC2(CCOCC2)C[C@H]1c1ncc(-c2ccc(-c3ccc(-c4cnc([C@@H]5CC6(CCOCC6)CN5C(=O)[C@@H](NC(=O)OC)C(C)C)[nH]4)cc3)cc2)[nH]1)C(C)C | 0.02 | 0.0126 | Ratio EC50 [3]: >=30; EC50 [4]: 0.02 nM; EC50 [5]: 0.126 nM; EC50 [6]: 0.00631 nM; Ratio EC50 [7]: <=5
CC(=O)N1CCC[C@H]1c1ncc(-c2ccc(-c3ccc(-c4cnc([C@@H]5CCCN5C(C)=O)[nH]4)cc3)cc2)[nH]1 | 794 | 126 | –
O=C(Nc1nc(-c2ccccc2)cs1)[C@@H]1CCCN1C(=O)OCc1ccccc1 | > 20000 | 2510 | –
COC(=O)N[C@H](C(=O)N1CC2(CCNCC2)CC1c1ncc(-c2ccc(-c3ccc(-c4cnc([C@@H]5CCCN5C(=O)[C@@H](NC(=O)OC)C(C)C)[nH]4)cc3)cc2)[nH]1)C(C)C (mixture of isomers) | > 31.6 | 1.58 | –
CNC(=O)N1CC2(CC(c3ncc(-c4ccc(-c5ccc(-c6cnc([C@@H]7CCCN7C(=O)[C@@H](NC(=O)OC)C(C)C)[nH]6)cc5)cc4)[nH]3)N(C(=O)[C@@H](NC(=O)OC)C(C)C)C2)C1 (mixture of isomers) | 6.31 | 0.251 | –

Further lines, with some results ahead:

EC50 [1] [nM] | EC50 [2] [nM] | SMILES | also measured
0.794 | 0.0158 | COC(=O)N[C@H](C(=O)N1CC2(CCN(C(=O)OC)CC2)CC1c1ncc(-c2ccc(-c3ccc(-c4cnc([C@@H]5CCCN5C(=O)[C@@H](NC(=O)OC)C(C)C)[nH]4)cc3)cc2)[nH]1)C(C)C (mixture of isomers) | –
0.1 | 0.00398 | COC(=O)N[C@H](C(=O)N1CC2(CC1c1ncc(-c3ccc(-c4ccc(-c5cnc([C@@H]6CCCN6C(=O)[C@@H](NC(=O)OC)C(C)C)[nH]5)cc4)cc3)[nH]1)CC(F)(F)C2)C(C)C (mixture of isomers) | –
0.0631 | 0.0158 | COC(=O)N[C@H](C(=O)N1CC2(CCOCC2)CC1c1ncc(-c2ccc(-c3ccc(-c4cnc([C@@H]5CCCN5C(=O)[C@@H](NC(=O)OC)C(C)C)[nH]4)cc3)cc2)[nH]1)C(C)C (mixture of isomers) | –
1.58 | 0.002 | COC(=O)N[C@H](C(=O)N1CCC[C@H]1c1ncc(-c2ccc(-c3ccc(-c4cnc([C@@H]5COC6(CCOCC6)N5C(=O)OCc5ccccc5)[nH]4)cc3)cc2)[nH]1)C(C)C | –
0.0251 | 0.00794 | COC(=O)N[C@H](C(=O)N1CCC[C@H]1c1ncc(-c2ccc(-c3ccc(-c4cnc([C@@H]5CC6(CN5C(=O)[C@@H](NC(=O)OC)C(C)C)OCCCO6)[nH]4)cc3)cc2)[nH]1)C(C)C | –
1 | 0.01 | COC(=O)N[C@H](C(=O)N1CC2(CC1c1ncc(-c3ccc(-c4ccc(-c5cnc([C@@H]6CCCN6C(=O)[C@@H](NC(=O)OC)C(C)C)[nH]5)cc4)cc3)[nH]1)CN(C(=O)OC(C)(C)C)C2)C(C)C (mixture of isomers) | –
0.794 | 0.00251 | COC(=O)N[C@H](C(=O)N1CCC[C@H]1c1ncc(-c2ccc(-c3ccc(-c4cnc([C@@H]5CC6(CN5C(=O)[C@@H](NC(=O)OC)C(C)C)OCC(C)(C)CO6)[nH]4)cc3)cc2)[nH]1)C(C)C | –
1.58 | 0.0158 | COC(=O)N[C@H](C(=O)N1CCC[C@H]1c1ncc(-c2ccc(-c3ccc(-c4cnc(C5CCC6(CCC(F)(F)CC6)N5C(=O)[C@@H](NC(=O)OC)C(C)C)[nH]4)cc3)cc2)[nH]1)C(C)C (stereo partly specified) | –
0.0794 | 0.00398 | COC(=O)N[C@H](C(=O)N1CCC[C@H]1c1ncc(-c2ccc(-c3ccc(-c4cnc([C@@H]5CC6(CN5C(=O)[C@@H](NC(=O)OC)C(C)C)SCCS6)[nH]4)cc3)cc2)[nH]1)C(C)C | –
0.631 | 0.01 | COC(=O)N[C@@H](C)C(=O)N1C(c2ncc(-c3ccc(-c4ccc(-c5cnc([C@@H]6CCCN6C(=O)[C@@H](NC(=O)OC)C(C)C)[nH]5)cc4)cc3)[nH]2)CCC12CCC(F)(F)CC2 (stereo partly specified) | –
0.631 | 0.00501 | COC(=O)NCC(=O)N1CC2(C[C@H]1c1ncc(-c3ccc(-c4ccc(-c5cnc([C@@H]6CCCN6C(=O)[C@@H](NC(=O)OC)C(C)C)[nH]5)cc4)cc3)[nH]1)SCCS2 | –
1.58 | 0.0631 | COC(=O)N[C@H](C(=O)N1CCC[C@H]1c1ncc(-c2ccc(-c3ccc(-c4cnc(C5CCC6(CCOCC6)N5C(=O)[C@@H](NC(=O)OC)C(C)C)[nH]4)cc3)cc2)[nH]1)C(C)C (stereo partly specified) | –
0.0794 | 0.02 | COC(=O)N[C@@H](C)C(=O)N1CC2(C[C@H]1c1ncc(-c3ccc(-c4ccc(-c5cnc([C@@H]6CCCN6C(=O)[C@@H](NC(=O)OC)C(C)C)[nH]5)cc4)cc3)[nH]1)OCCCO2 | –
0.316 | 0.0126 | COC(=O)N[C@H](C(=O)N1CCC[C@H]1c1ncc(-c2ccc(-c3ccc(-c4cnc(C5CCC6(CCOCC6)N5C(C)=O)[nH]4)cc3)cc2)[nH]1)C(C)C (stereo partly specified) | –
1.26 | 0.0501 | COC(=O)N[C@H](C(=O)N1CC2(CC1c1ncc(-c3ccc(-c4ccc(-c5cnc([C@@H]6CCCN6C(=O)[C@@H](NC(=O)OC)C(C)C)[nH]5)cc4)cc3)[nH]1)CN(S(C)(=O)=O)C2)C(C)C (mixture of isomers) | –
0.0631 | 0.00398 | CC[C@H](NC(=O)OC)C(=O)N1CC2(C[C@H]1c1ncc(-c3ccc(-c4ccc(-c5cnc([C@@H]6CCCN6C(=O)[C@@H](NC(=O)OC)C(C)C)[nH]5)cc4)cc3)[nH]1)SCCS2 | –
0.398 | 0.0398 | COC(=O)N[C@H](C(=O)N1CC2(CCS(=O)(=O)CC2)CC1c1ncc(-c2ccc(-c3ccc(-c4cnc([C@@H]5CCCN5C(=O)[C@@H](NC(=O)OC)C(C)C)[nH]4)cc3)cc2)[nH]1)C(C)C (mixture of isomers) | –
1.26 | 0.158 | COC(=O)N[C@H](C(=O)N1CC2(CC1c1ncc(-c3ccc(-c4ccc(-c5cnc([C@@H]6CCCN6C(=O)[C@@H](NC(=O)OC)C(C)C)[nH]5)cc4)cc3)[nH]1)CN(C(C)=O)C2)C(C)C (mixture of isomers) | –
1.58 | 0.00631 | CN(C)[C@@H](C(=O)N1CCC[C@H]1c1ncc(-c2ccc(-c3ccc(-c4cnc([C@@H]5COC6(CCOCC6)N5C(=O)OCc5ccccc5)[nH]4)cc3)cc2)[nH]1)c1ccccc1 | –
1 | 0.0158 | CC[C@H](NC(=O)OC)C(=O)N1C(c2ncc(-c3ccc(-c4ccc(-c5cnc([C@@H]6CCCN6C(=O)[C@@H](NC(=O)OC)C(C)C)[nH]5)cc4)cc3)[nH]2)CCC12CCC(F)(F)CC2 (stereo partly specified) | –
